# Test results as given in patent US20250188041A1, “NEW COMPOUNDS AND TREATMENT OF RENAL CELL CARCINOMA” (Trustlife Global Inc., priority 2022, published 2025).
# pIC50: −log10 of the molar value. Entries after “also recorded” stand apart in the source; their conditions may differ.
# Assays:
# Type in all cases: cell-based, Human
# Caki-1 cells [1] = assay: MTT cell viability assay of Caki-1 treated with TG-101209 and its alternatives; conditions: for pIC50: Homo sapiens, FIG. 43, assay not named, presumably Caki-1 cell viability; for cell viability (MTT assay) / Ranking, Cell viability (%): 1 day; for Ranking, Cell viability (%): top five target drugs, MTT assay, 10 μM, rank 1 = greatest reduction
# Method: (§1) Cell culture 2: Caki-1 was purchased from CLS Cell Lines Service (Germany). The cells were maintained in McCoy's SA (modified) medium (16600082, Thermo Fisher Scientific, USA) and supplemented with 10% fetal bovine serum (FBS, F7524, Sigma-Aldrich), 1% Penicillin/Streptomycin (P4333, Sigma-Aldrich).
# The cytotoxic effects of the TG-101209 and its alternatives on the Caki-1 cells were tested by MTT (Thiazolyl Blue Tetrazolium Bromide) method. 1.5×10^4 cells were seeded per well in a 96-well plate in 100 μL growth media. […] After the incubation period, 5 mg/ml MTT (M2128, Sigma-Aldrich) solution in PBS (10 μL) was added to each well. After 1 hour, the MTT solution and all media were removed from the wells. 100 μl of DMSO was added and mixed to dissolve the formazan crystals. Cell viability was analysed by measuring the absorbance of the dissolved formazan at a wavelength of 570 nm with a microplate reader (Hidex Sense Beta Plus).
# BUB1B = assay: Western blot, BUB1B expression in Caki-1 treated with TG-101209 alternatives; conditions: Caki-1, 5 μM of target drug, 1 day (FIG. 41; method says 2 days)
# Method: as §1
# The target drugs developed as alternatives to TG-101209, were dissolved in 0.1% DMSO (41639, Sigma-Aldrich). Caki-1 cells from cell culture 2 were seeded in a 6-well plate at 3×10^5 cells per well. […]
# The cells were washed with PBS solution and then lysed with CelLytic M (C2978, Sigma-Aldrich) lysis buffer containing protease inhibitors (11836170001, Roche). The cell lysates were centrifuged at 12 000 rpm for 10 min and supernatants were collected. Protein Assay Dye Reagent (5000006, Bio-Rad) was used for the determination of protein concentration. The absorbance of the proteins was measured spectrophotometrically at 595 nm by a microplate reader (Hidex Sense Beta Plus). Protein electrophoresis was performed using Mini-PROTEAN® TGX™ Precast Gels (4561086, Bio-Rad) and then the separated proteins were transferred to a Trans-Blot Turbo Mini 0.2 um PVDF Transfer Packs membrane (1704158, Bio-Rad) by using Trans-Blot® Turbo™ Transfer System (Bio-Rad). The membrane was blocked with 5% skim milk for 30 min at 4° C. with gentle rocking. After blocking, the membrane was treated with primary antibodies: Anti-BUB1B (HPA008419, Human Protein Atlas, Sweden) and Anti-Beta actin (ab8227, Abcam) as a loading control overnight at 4° C. on a rocking platform. After the treatment of primary antibodies, the membrane was washed three times with TBS-T buffer (A09-7500-100, Medicago). Then, Goat anti-Rabbit IgG-HRP (ab205718, Abcam) was treated as the secondary antibody for 30 min at 4° C. with gentle rocking.
# Caki-1 cells [2] = assay: LDH cytotoxicity assay of Caki-1; conditions: 1 day; for cytotoxicity (LDH assay): Caki-1, 10 μM; for Ranking, Cytotoxicity (%): top five target drugs, LDH assay, 10 μM, rank 1 = highest cytotoxicity
# Method: as §1
# Lactate dehydrogenase (LDH) assay was performed with LDH Assay Kit (ab65393). 1.5×10^4 cells per well (from cell culture 2) were seeded in a 96-well plate and drugs were treated at 10 μM for 1 day with 200 μl media. 20 μl of media was analysed with LDH Assay Kit as per manufacturer's instruction.
Structure (SMILES),pIC50 (Caki-1 cells [1]),expression levels of BUB1B (BUB1B),"cell viability (MTT assay) (Caki-1 cells [1]; Caki-1, 5 μM)","cell viability (MTT assay) (Caki-1 cells [1]; Caki-1, 10 μM)","cell viability (MTT assay) (Caki-1 cells [1]; Caki-1, 10 μM, listed as MS)","Ranking, Cell viability (%) (Caki-1 cells [1])",cytotoxicity (LDH assay) (Caki-1 cells [2]),"Ranking, Cytotoxicity (%) (Caki-1 cells [2])"
"Cc1cnc(Nc2ccc(N3CCN(C)CC3)cc2)nc1Nc1cccc(S(=O)(=O)Nc2ccccc2)c1 [M3, 3-((5-methyl-2-((4-(4-methylpiperazin-1-yl)phenyl)amino)pyrimidin-4-yl)amino)-N-phenylbenzenesulfonamide]",~5.52,significantly lower the expression levels of BUB1B,–,–,–,–,–,–
"Cc1cnc(Nc2ccc(N3CCN(C)CC3)cc2)nc1Nc1cccc(S(=O)(=O)NC2CCC2)c1 [M5, N-cyclobutyl-3-((5-methyl-2-((4-(4-methylpiperazin-1-yl)phenyl)amino)pyrimidin-4-yl)amino)benzenesulfonamide]",~5.52,significantly lower the expression levels of BUB1B,greatest,greatest reduction of cell viability; also recorded: greatest reduction in cell viability,most profound effect on the cell viability,1,exhibited cytotoxicity; also recorded: highest cytotoxicity; also recorded: greatest cytotoxicity,2
"Cc1cnc(Nc2ccc(N3CCN(C)CC3)cc2)nc1Nc1cccc(S(=O)(=O)N2CCOCC2)c1 [M7, 5-methyl-N2-(4-(4-methylpiperazin-1-yl)phenyl)-N4-(3-(morpholinosulfonyl)phenyl)pyrimidine-2,4-diamine]",< 5.52,significantly lower the expression levels of BUB1B,–,–,–,–,–,–
"Cc1cn(-c2cc(Nc3ncc(C)c(Nc4cccc(S(=O)(=O)NC(C)(C)C)c4)n3)cc(C(F)(F)F)c2)cn1 [M64, N-(tert-butyl)-3-((5-methyl-2-((3-(4-methyl-1H-imidazol-1-yl)-5-(trifluoromethyl)phenyl)amino)pyrimidin-4-yl)amino)benzenesulfonamide]",< 5.52,significantly lower the expression levels of BUB1B,–,–,–,–,–,–
"Cc1ccc(Nc2ncc(C)c(Nc3cccc(S(=O)(=O)NC(C)(C)C)c3)n2)cc1S(N)(=O)=O [M66, N-(tert-butyl)-3-((5-methyl-2-((4-methyl-3-sulfamoylphenyl)amino)pyrimidin-4-yl)amino)benzenesulfonamide]",–,significantly lower the expression levels of BUB1B,greatest,most profound effect on the cell viability,–,3,exhibited cytotoxicity,4
"COc1cc(Nc2ncc(C)c(Nc3cccc(S(=O)(=O)NC(C)(C)C)c3)n2)cc(OC)c1 [M79, N-(tert-butyl)-3-((2-((3,5-dimethoxyphenyl)amino)-5-methylpyrimidin-4-yl)amino)benzenesulfonamide]",~5.52,significantly lower the expression levels of BUB1B,–,–,–,–,–,–
"COc1cc(NC(=O)c2ccc(Nc3ncc(C)c(Nc4cccc(S(=O)(=O)NC(C)(C)C)c4)n3)cc2)cc(OC)c1 [M101A, 4-((4-((3-(N-(tert-butyl)sulfamoyl)phenyl)amino)-5-methylpyrimidin-2-yl)amino)-N-(3,5-dimethoxyphenyl)benzamide]",–,–,greatest,most profound effect on the cell viability,–,4,exhibited cytotoxicity,5
"Cc1cnc(Nc2ccc(C(=O)Nc3cccc(Br)c3)cc2)nc1Nc1cccc(S(=O)(=O)NC(C)(C)C)c1 [M101B, N-(3-bromophenyl)-4-((4-((3-(N-(tert-butyl)sulfamoyl)phenyl)amino)-5-methylpyrimidin-2-yl)amino)benzamide]",–,–,greatest,–,–,–,exhibited cytotoxicity,3
"Cc1cnc(Nc2ccc(C(=O)Nc3cccc(S(=O)(=O)NC(C)(C)C)c3)cc2)nc1Nc1cccc(S(=O)(=O)NC(C)(C)C)c1 [M101D, N-(3-(N-(tert-butyl)sulfamoyl)phenyl)-4-((4-((3-(N-(tert-butyl)sulfamoyl)phenyl)amino)-5-methylpyrimidin-2-yl)amino)benzamide]",–,–,greatest,most profound effect on the cell viability; also recorded: greatest reduction of cell viability; also recorded: greatest reduction in cell viability,–,2,exhibited cytotoxicity; also recorded: highest cytotoxicity; also recorded: greatest cytotoxicity,1
"Cc1cnc(Nc2ccc(C(=O)Nc3cccc(S(=O)(=O)N4CCOCC4)c3)cc2)nc1Nc1cccc(S(=O)(=O)NC(C)(C)C)c1 [M101F, 4-((4-((3-(N-(tert-butyl)sulfamoyl)phenyl)amino)-5-methylpyrimidin-2-yl)amino)-N-(3-(morpholinosulfonyl)phenyl)benzamide]",–,–,greatest,–,–,–,exhibited cytotoxicity,–
"Cc1cnc(Nc2ccc(C(=O)Nc3ccc(OCCCN4CCOCC4)cc3)cc2)nc1Nc1cccc(S(=O)(=O)NC(C)(C)C)c1 [M101G, 4-((4-((3-(N-(tert-butyl)sulfamoyl)phenyl)amino)-5-methylpyrimidin-2-yl)amino)-N-(4-(3-morpholinopropoxy)phenyl)benzamide]",–,–,greatest,–,–,–,–,–
"Cc1cnc(Nc2ccc(C(=O)Nc3ccc4ncccc4c3)cc2)nc1Nc1cccc(S(=O)(=O)NC(C)(C)C)c1 [M101H, 4-((4-((3-(N-(tert-butyl)sulfamoyl)phenyl)amino)-5-methylpyrimidin-2-yl)amino)-N-(quinolin-6-yl)benzamide]",–,–,greatest,–,–,–,–,–
"Cc1cnc(Nc2ccc(OCCCN3CCOCC3)cc2)nc1Nc1cccc(S(=O)(=O)NC(C)(C)C)c1 [M103, N-(tert-butyl)-3-((5-methyl-2-((4-(3-morpholinopropoxy)phenyl)amino)pyrimidin-4-yl)amino)benzenesulfonamide]",~5.52,–,–,–,–,–,–,–
